What was measured:
[1] = system: LPS-induced TNFα; test: Inhibition of the formation of LPS-induced TNFα in RAW264.7 macrophages; assay type: cell-based
Excerpt: As for determination of inhibitory activity of Strepsesquitriol on the formation of lipopolysaccharide (LPS)-induced TNFα in RAW264.7 macrophages, please refer to the references (Fan, S. Y.; Zeng, H. W.; Pei, Y. H.; Li. L.; Ye, J.; Pan, Y. X.; Zhang, J. G.; Yuan, X.; Zhang, W. D. The anti-inflammatory activities of an extract and compounds isolated from Platycladus orientalis (Linnaeus) Franco in vitro and ex vivo J Ethnopharmacol 2012, 141, 647-652) ENREF 3.

[2] = system: RAW264.7 cells; test: Cytotoxic activity to RAW264.7 cells; assay type: cell-based; settings: concentration 100 μM

## Cc1ccc(S(=O)(=O)N[C@@H](Cc2ccccc2)C(=O)CCl)cc1 [TPCK, N-p-tosyl-1-phenylalanine chloromethyl ketone, reference compound]
[1]; concentration 100 μM
  Inhibition rate (%): 60.6%

## C[C@H]1C[C@@H](O)[C@]23C[C@H](CC[C@]12O)C(C)(C)[C@]3(C)O [Strepsesquitriol A, (1R,2R,4S,5S,8S,10S)-4,9,9,10-tetramethyl-2,5,10-trihydroxyltricyclo[6.2.1.0^1,5]undecane]
[2]
  cytotoxic activity: no cytotoxic activity
[1]; Mus musculus, concentration 3.6 μM, read-out: Inhibition rate (%)
  inhibition at 3.6 µM: 3.4 ± 2.8%
[1]; Mus musculus, concentration 11.0 μM, read-out: Inhibition rate (%)
  inhibition at 11 µM: 8 ± 1.6%
[1]; Mus musculus, concentration 33.0 μM, read-out: Inhibition rate (%)
  inhibition at 33 µM: 30.6 ± 1.4%
[1]; Mus musculus, concentration 100 μM, read-out: Inhibition rate (%)
  inhibition at 100 µM: 35.4%
